The assay deals with SARS-CoV-2. The experiment in a line: Antiviral activity against SARS CoV-2 infected in african green monkey Vero E6 cells assessed as inhibition of viral growth preincubated with cells for 1 hr followed by viral addition for 1 hr with subsequent compound washout and measured after 24 hrs of compound replacement by qRT-PCR analysis. Format: functional, organism-based. Particulars: Severe acute respiratory syndrome coronavirus 2, Vero C1008. Background: Real-time PCR tracks product formation cycle by cycle.

As usually defined, the IC50 is the concentration at which inhibition is half-maximal. `COc1cc2c3cc1Oc1c(OC)c(OC)cc4c1[C@H](Cc1ccc(cc1)Oc1cc(ccc1C1CC1)C[C@H]3N(C)CC2)N(C)CC4`: the IC50 stood at 2570 nM. As for `COc1ccc(NC(=O)c2ccc3cc2Oc2ccc(cc2)C[C@H]2c4c(cc(OC)c(OC)c4Oc4cc5c(cc4OC)CCN(C)[C@@H]5C3)CCN2C)cc1`, the IC50 came to 620 nM. With `COc1cc2c3cc1Oc1c(OC)c(OC)cc4c1[C@H](Cc1ccc(cc1)Oc1cc(ccc1C(=O)Nc1ccccc1)C[C@H]3N(C)CC2)N(C)CC4` the figure was 2820 nM; with `C=CC(=O)Nc1ccc2cc1Oc1ccc(cc1)C[C@H]1c3c(cc(OC)c(OC)c3Oc3cc4c(cc3OC)CCN(C)[C@@H]4C2)CCN1C`, 1850 nM. For `COc1cc2c3cc1Oc1c(OC)c(OC)cc4c1[C@H](Cc1ccc(cc1)Oc1cc(ccc1C(=O)NC1CCCC1)C[C@H]3N(C)CC2)N(C)CC4`, the IC50 came out at 1490 nM. The same measure for `COc1cc2c3cc1Oc1c(OC)c(OC)cc4c1[C@H](Cc1ccc(cc1)Oc1cc(cc([N+](=O)[O-])c1)C[C@H]3N(C)CC2)N(C)CC4`: 720 nM; for `COc1cc2c3cc1Oc1c(OC)c(OC)cc4c1[C@H](Cc1ccc(cc1)Oc1cc(ccc1C(=O)NC1CC1)C[C@H]3N(C)CC2)N(C)CC4`: 890 nM; for `COc1cc2c3cc1Oc1c(OC)c(OC)cc4c1[C@H](Cc1ccc(cc1)Oc1cc(ccc1N)C[C@H]3N(C)CC2)N(C)CC4`: more than 5000 nM. As to `COc1cc2c3cc1Oc1c(OC)c(OC)cc4c1[C@H](Cc1ccc(cc1)Oc1cc(ccc1C(=O)N1CCCCC1)C[C@H]3N(C)CC2)N(C)CC4`, the IC50 was determined as 1600 nM.

On to `COc1cc2c3cc1Oc1c(OC)c(OC)cc4c1[C@H](Cc1ccc(cc1)Oc1cccc(c1)C[C@H]3N(C)CC2)N(C)CC4`, for which the IC50 was 930 nM.

Turning to `COc1cc2c3cc1Oc1c(OC)c(OC)cc4c1[C@H](Cc1ccc(cc1)Oc1cc(cc(N)c1O)C[C@H]3N(C)CC2)N(C)CC4`, the IC50 was more than 5000 nM.

Take `COc1cc2c3cc1Oc1c(OC)c(OC)cc4c1[C@H](Cc1ccc(cc1)Oc1cc(ccc1C(C)=O)C[C@H]3N(C)CC2)N(C)CC4`: the IC50 worked out at 1480 nM. Turning to `C=C(C)c1ccc2cc1Oc1ccc(cc1)C[C@H]1c3c(cc(OC)c(OC)c3Oc3cc4c(cc3OC)CCN(C)[C@@H]4C2)CCN1C`, the IC50 turned out to be 1090 nM.

For the molecule `COc1cc2c3cc1Oc1c(OC)c(OC)cc4c1[C@H](Cc1ccc(cc1)Oc1cc(ccc1C(=O)Nc1ccc(C(F)(F)F)cc1)C[C@H]3N(C)CC2)N(C)CC4`, the IC50 came to 2780 nM.

In the case of `COC(=O)c1ccc2cc1Oc1ccc(cc1)C[C@H]1c3c(cc(OC)c(OC)c3Oc3cc4c(cc3OC)CCN(C)[C@@H]4C2)CCN1C`, the IC50 was 840 nM. Turning to `COc1cc2c3cc1Oc1c(OC)c(OC)cc4c1[C@H](Cc1ccc(cc1)Oc1cc(ccc1C)C[C@H]3N(C)CC2)N(C)CC4`, the IC50 was determined as 2450 nM.

As for `COc1cc2c3cc1Oc1c(OC)c(OC)cc4c1[C@H](Cc1ccc(cc1)Oc1cc(ccc1C(=O)NC15CC6CC(CC(C6)C1)C5)C[C@H]3N(C)CC2)N(C)CC4`, the IC50 came out at 1060 nM.

For the molecule `COc1cc2c3cc1Oc1c(OC)c(OC)cc4c1[C@H](Cc1ccc(cc1)Oc1cc(ccc1NCc1ccccc1)C[C@H]3N(C)CC2)N(C)CC4`, the 50% inhibitory concentration (IC50) was more than 5000 nM. For the molecule `COc1cc2c3cc1Oc1c(OC)c(OC)cc4c1[C@H](Cc1ccc(cc1)Oc1cc(ccc1C(=O)NC(C)C)C[C@H]3N(C)CC2)N(C)CC4`, the IC50 came to 1020 nM.

As for `COc1cc2c3cc1Oc1c(OC)c(OC)cc4c1[C@H](Cc1ccc(cc1)Oc1cc(ccc1C(=O)O)C[C@H]3N(C)CC2)N(C)CC4`, the IC50 was more than 5000 nM. Regarding `CNc1ccc2cc1Oc1ccc(cc1)C[C@H]1c3c(cc(OC)c(OC)c3Oc3cc4c(cc3OC)CCN(C)[C@@H]4C2)CCN1C`, the IC50 is more than 5000 nM. With `COc1cc2c3cc1Oc1c(OC)c(OC)cc4c1[C@H](Cc1ccc(cc1)Oc1cc(ccc1C(N)=O)C[C@H]3N(C)CC2)N(C)CC4` the figure was 550 nM. The same measure for `COc1cc2c3cc1Oc1c(OC)c(OC)cc4c1[C@H](Cc1ccc(cc1)Oc1cc(ccc1C(=O)NCCOCCO)C[C@H]3N(C)CC2)N(C)CC4`: 2740 nM. As to `COc1cc2c3cc1Oc1c(OC)c(OC)cc4c1[C@H](Cc1ccc(cc1)Oc1cc(ccc1C(=O)Nc1cccnc1)C[C@H]3N(C)CC2)N(C)CC4`, the IC50 was 940 nM.

Consider `COc1cc2c3cc1Oc1c(OC)c(OC)cc4c1[C@H](Cc1ccc(cc1)OC1C=C(Cc5[nH]c(=O)oc51)C[C@H]3N(C)CC2)N(C)CC4` (stereo not given in full), for which the IC50 was 670 nM. The same measure for `CCCCCNC(=O)c1ccc2cc1Oc1ccc(cc1)C[C@H]1c3c(cc(OC)c(OC)c3Oc3cc4c(cc3OC)CCN(C)[C@@H]4C2)CCN1C`: 2520 nM; for `COc1cc2c3cc1Oc1c(OC)c(OC)cc4c1[C@H](Cc1ccc(cc1)Oc1cc(ccc1C(=O)NC1CCC1)C[C@H]3N(C)CC2)N(C)CC4`: 530 nM; for `CNC(=O)c1ccc2cc1Oc1ccc(cc1)C[C@H]1c3c(cc(OC)c(OC)c3Oc3cc4c(cc3OC)CCN(C)[C@@H]4C2)CCN1C`: 2510 nM.

With `COc1cc2c3cc1Oc1c(OC)c(OC)cc4c1[C@H](Cc1ccc(cc1)Oc1cc(cc([N+](=O)[O-])c1O)C[C@H]3N(C)CC2)N(C)CC4`, the IC50 was more than 5000 nM. Regarding `COc1cc2c3cc1Oc1c(OC)c(OC)cc4c1[C@H](Cc1ccc(cc1)Oc1cc(ccc1O)C[C@H]3N(C)CC2)N(C)CC4` [AROMOLINE], the IC50 was 14500 nM.

The values above are taken from ChEMBL document CHEMBL6074634, “Design, synthesis, and evaluation of novel oxyacanthine derivatives for anti-SARS-CoV-2 activity” (Bioorg Med Chem Lett, 2024).
